The results in this text go back to US6395726B1, “3,6-disubstituted penam sulfone derivatives” (priority 1999, dated 2002).

In one assay the target is AmpC β-lactamase (UniProt P18539). The format is biochemical. The note with it: read-out: IC50 (nM) AmpC.
A further assay relates to E. coli (TEM-1, Class A). Put plainly: Microbiological assay, broth MIC in combination with piperacillin. It is filed as cell-based. Particulars: for MIC (μg/ml; 1:1) E. coli: piperacillin:inhibitor ratio 1:1, broth. How it is done:
(§1) Representative compounds according to the present invention were tested in a microbiological assay in combination with the penicillin antibiotic piperacillin. The enhanced combined synergestic antibacterial activity is representative of the β-lactamase inhibitory properties of the compounds of the present invention. In these tests, minimum inhibitory […] (MIC's) are determined in broth using several two-fold dilutions with a 1:1 ratio of piperacillin to inhibitor (N. A. Kuck, N. V. Jacobus, P. J. Peterson, W. J. Weiss, and R. T. Testa, Antibiotic Agents and Chemotherapy, 33:1964-1969 (1989)).

The test system of assay [1] is S. marcescens (AmpC, Class C). The assay is described as above. Particulars: for MIC (μg/ml; 1:1) S. marcescens: piperacillin:inhibitor ratio 1:1. The format is cell-based. How it is done: as §1
The next assay deals with TEM-1 β-lactamase (Escherichia coli, UniProt P62593). The assay is described as follows: β-lactamase inhibition, spectrophotometric, nitrocefin substrate. It is filed as biochemical.
Setting [2] is: 10 minute preincubation of enzyme with inhibitor at 25° C., nitrocefin substrate.
[3] abbreviates: 10 minute preincubation of enzyme with inhibitor at 25° C., nitrocefin substrate, read-out: IC50 (nM) TEM-1.

Structures are written as SMILES. Where two headings read alike, the source gives them in different places. Marks after values point to notes of the source that are not given here.

By IC50 is commonly meant the concentration at which inhibition is half-maximal.

Chain of TEM-1 β-lactamase (P62593 24-286 limits assumed): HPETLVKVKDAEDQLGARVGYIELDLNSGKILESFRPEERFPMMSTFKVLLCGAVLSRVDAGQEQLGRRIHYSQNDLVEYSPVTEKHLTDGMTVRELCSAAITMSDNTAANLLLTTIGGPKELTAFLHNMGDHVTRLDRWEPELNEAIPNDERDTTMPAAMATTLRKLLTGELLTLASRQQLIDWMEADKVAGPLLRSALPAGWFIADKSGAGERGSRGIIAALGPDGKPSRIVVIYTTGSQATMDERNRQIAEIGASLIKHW

For `C[C@]1(Cn2ccnn2)[C@H](C(=O)O)N2C(=O)C[C@H]2S1(=O)=O` [Tazobactam, reference compound], the IC50 at AmpC β-lactamase stood at 47700 nM. For the same molecule, in the assay with E. coli (TEM-1, Class A) (strain GC6265, TEM-1 (Class A)), the “MIC (μg/ml; 1:1) E. coli” value was determined as 2 µg/mL. Also, the “MIC (μg/ml; 1:1) S. marcescens” value in assay [1] (strain GC4132, AmpC (Class C)) came out at 32 µg/mL.

Turning to `CCN1CCN(C(=O)N[C@@H](C(=O)N[C@@H]2C(=O)N3[C@@H]2SC(C)(C)[C@@H]3C(=O)O)c2ccccc2)C(=O)C1=O` [Piperacillin, reference compound], the MIC with E. coli (TEM-1, Class A) (Escherichia coli, read-out: MIC (μg/ml) E. coli) is > 64 µg/mL; in assay [1] (Serratia marcescens, strain GC4132, AmpC (Class C), piperacillin row, no inhibitor named, read-out: MIC (μg/ml) S. marcescens) it was 32 µg/mL.

Turning to `CON=C[C@@]1(C)[C@H](C(=O)O)N2C(=O)[C@@H](CO)[C@H]2S1(=O)=O` [Example 3, (2S,3R,5R,6R)-6-Hydroxymethyl-3-(methoxyimino-methyl)-3-methyl-4,4,7-trioxo-4-lambda(6)-thia-1-aza-bicyclo[3.2.0]heptane-2-carboxylic acid], the 50% inhibitory concentration (IC50) turned out to be 280 nM at AmpC β-lactamase and 64 nM on TEM-1 β-lactamase. Besides, the “MIC (μg/ml; 1:1) E. coli” value in the assay with E. coli (TEM-1, Class A) (strain GC6265, TEM-1 (Class A)) is 8 µg/mL. The “MIC (μg/ml; 1:1) S. marcescens” value in assay [1] (strain GC4132, AmpC (Class C)) is 16 µg/mL.

For the molecule `C[C@]1(Cn2ccnn2)C(C(=O)[O-])N2C(=O)[C@@H](CO)C2S1(=O)=O.[Na+]` (some centres unmarked) [Example 1], inhibition against TEM-1 β-lactamase was half-maximal at 6 nM (IC50). Also, the “MIC (μg/ml; 1:1) E. coli” value in the assay on E. coli (TEM-1, Class A) (strain GC2847, TEM-1 (Class A)) is reported as 2^c μg/ml. The “MIC (μg/ml; 1:1) S. marcescens” value in assay [1] (strain GC2894, AmpC (Class C)) is given as 16^e μg/ml.

For `C[C@]1(/C=C\C#N)[C@H](C(=O)O)N2C(=O)[C@@H](CO)[C@H]2S1(=O)=O` [Example 2 (cis), (Z)-(2S,3S,5R,6R)-6-Hydroxymethyl-3-methyl-3-(3-nitrilo-propenyl)-4,4,7-trioxo-4-lambda(6)-thia-1-azabicyclo[3.2.0]heptane-2-carboxylic acid], the 50% inhibitory concentration (IC50) is 270 nM at AmpC β-lactamase (setting [2]) and 19 nM on TEM-1 β-lactamase (setting [3]). Besides, the “MIC (μg/ml; 1:1) E. coli” value in the assay on E. coli (TEM-1, Class A) (strain GC6265, TEM-1 (Class A)) came out at 4 µg/mL. For the same molecule, the “MIC (μg/ml; 1:1) S. marcescens” value in assay [1] (strain GC4132, AmpC (Class C)) is 8 µg/mL.

For `C[C@]1(/C=C/C#N)[C@H](C(=O)O)N2C(=O)[C@@H](CO)[C@H]2S1(=O)=O` [Example 2 (trans), (E)-(2S,3S,5R,6R)-6-Hydroxymethyl-3-methyl-3-(3-nitrilo-propenyl)-4,4,7-trioxo-4-lambda(6)-thia-1-aza-bicyclo[3.2.0]heptane-2-carboxylic acid], the results for the half-maximal inhibitory concentration (IC50) on AmpC β-lactamase (setting [2]) and on TEM-1 β-lactamase (setting [3]) were 280 nM and 74 nM, respectively. The “MIC (μg/ml; 1:1) E. coli” value in the assay with E. coli (TEM-1, Class A) (strain GC6265, TEM-1 (Class A)) was 16 µg/mL. The “MIC (μg/ml; 1:1) S. marcescens” value in assay [1] (strain GC4132, AmpC (Class C)) is 4 µg/mL.
